Reference: patent US12221625B2, “Method for producing retinal pigment epithelial cells” (SUMITOMO PHARMA CO., LTD., priority 2015, dated 2025)

How the values were obtained:
RPE65, BEST1, CRALBP = test: RT-PCR of retinal pigment epithelial cell markers in produced RPE cells (Example 14); format: cell-based, human; conditions: PD0325901 1 μM or PD173074 100 nM, 6 days; cells collected day 43 of culture
Method: After observation on day 43 of culture, the cells were collected, RNA was extracted and RT-PCR was performed. RNeasy Micro Kit (QIAGEN) was used for RNA extraction, Oligo (dT)12-18 Primer (Invitrogen) and SuperScript III Reverse Transcriptase (Invitrogen) were used for reverse transcription reaction, and Blend Taq-Plus- (TOYOBO) was used for PCR. The primer sequences of RPE65, BEST1, CRLBP, GAPDH are as described below. […] NO: 1), […] NO: 2), […] NO: 3), […] NO: 4), CRALBP-[…] NO: 5), CRALBP-[…] NO: 6), […] NO: 7), […] NO: 8). The number of cycles of the PCR reaction was 30 cycles for RPE65, BEST1, GAPDH, and 35 cycles for CRALBP. PCR products were detected as a single band by agarose gel electrophoresis at near 369 bp for RPE65, near 261 bp for BEST1, near 341 bp for CRALBP, and near 452 bp for GAPDH. As a positive control, primary human RPE (hRPE) was used and, as a negative control, iPS cells (undifferentiated iPSC) cultured under conditions for maintaining undifferentiated state were used.

[1] = tested on: human iPS cells (201B7 line and 1231A3 line); test: Production of RPE cells including combined treatment step of MEK inhibitor and/or FGF receptor inhibitor and various inhibitors or agonist (Example 3); format: cell-based; conditions: first step 6 days in AK03 medium; observed 38 to 47 days of culture; FIG. 7
Method: (§2) The medium used was “STEMFIT™” AK03 medium (Ajinomoto Co., Inc.) (hereinafter AK03 medium).
Production of retinal pigment epithelial (RPE) cells including a combined treatment step of MEK inhibitor and/or FGF receptor inhibitor, and various inhibitors, signal transduction pathway inhibitor or signal transduction pathway agonist was performed as follows. iPS cells under culture for maintaining undifferentiated state were treated with 0.5×TrypLE select, dissociated using a cell scraper, dispersed to single cells by pipetting, seeded in a 6-well culture plate coated with iMatrix-511 (Nippi) (0.5 μg/cm^2) at 1.2×10^4 cells per 1 well and cultured in a ROCK inhibitor [10 μM Y-27632 (Wako Pure Chemical Industries, Ltd.)]-containing AK03 medium under 37° C., 5% CO2 conditions. The next day of cell seeding, PD0325901 (SIGMA) (final concentration 1 μM) as an MEK inhibitor, PD173074 (SIGMA) (final concentration 100 nM) as an FGF receptor inhibitor, LDN193189 (STEMGENT) (final concentration 100 nM) as a BMP receptor inhibitor, SAG (Enzo Life Sciences) (final concentration 30 nM) as an Shh signal transduction pathway agonist, and Go6983 (SIGMA) (final concentration 2 μM) as a PKC inhibitor in the combination shown in FIG. 7 were added to the medium (start of the first step) and the cells were exposed thereto for 6 days (completion of the first step). […]

[2] = tested on: human iPS cells (QHJI01 line); test: Inhibitor concentrations in MEK inhibitor or FGF receptor inhibitor treatment step (Example 8); format: cell-based; conditions: 6 days, day 36 and day 49 of culture
From the text: (§1) 2014 Jan. 8; 4: 3594”. The medium used was “STEMFIT™” AK03N medium (Ajinomoto Co., Inc.) (hereinafter AK03N medium).

[3] = tested on: human iPS cells (QHJI01 line); test: Number of days of exposure of each inhibitor in first step (Example 5); format: cell-based; conditions: day 48 of culture; for brown-black cell population: 4 days-6 days of exposure; for proportion of cells that developed color in the whole well versus number of exposure days: exposure 1 day to 6 days; for brown-black cell populations: exposure for not less than 2 days, PD0325901 1 μM or PD173074 100 nM
From the text: as §1

[4] = tested on: human iPS cells (Ff-I01 line and QHJI01 line); test: Production of RPE cells including MEK inhibitor or FGF receptor inhibitor treatment step using iPS cells Ff-I01, QHJI01 (Example 4); format: cell-based; conditions: PD0325901 1 μM or PD173074 100 nM, 6 days, AK03N medium; day 43 of culture; both Ff-I01 and QHJI01 lines
From the text: as §1

[5] = tested on: human iPS cells (1231A3 line); test: MEK inhibitor exposure period in MEK inhibitor treatment step (Example 6); format: cell-based; conditions: PD0325901 1 μM, day 37 of culture
Method: as §2
Production of retinal pigment epithelial (RPE) cells including an MEK inhibitor treatment step was performed as follows. iPS cells under culture for maintaining undifferentiated state were treated with 0.5×TrypLE select (mixture of equal amounts of TrypLE select (Life Technologies) and 0.5 mM EDTA/PBS(−)), dissociated using a cell scraper, dispersed to single cells by pipetting, seeded in a 6-well culture plate coated with iMatrix-511 (Nippi) (0.5 μg/cm^2) at 1.2×10^4 cells per 1 well and cultured in a ROCK inhibitor [10 μM Y-27632 (Wako Pure Chemical Industries, Ltd.)]-containing AK03 medium under 37° C., 5% CO2 conditions. On the next day of seeding, 4 days later or 6 days later, PD0325901 (SIGMA) (final concentration 1 μM) as an MEK inhibitor was added to the AK03 medium (start of the first step) and the cells were exposed thereto for 6 days, 3 days or 1 day (completion of the first step). In addition, cells exposed to MEK inhibitor for 6 days were treated with 0.5×TrypLE select, dissociated using a cell scraper, dispersed to single cells by pipetting, seeded in a 6-well culture plate coated with iMatrix-511 (Nippi) (0.5 μg/cm^2) at 0.8×10^4 cells per 1 well and further cultured for 7 days in AK03 medium containing Y-27632 (final concentration 10 μM) and PD0325901 (final concentration 1 μM) under 37° C., 5% CO2 conditions, whereby the cells were exposed to the MEK inhibitor for 13 days (completion of the first step). Thereafter, the cells were treated with 0.5×TrypLE select, dissociated using a cell scraper, dispersed to single cells by pipetting, seeded in a 6-well culture plate coated with iMatrix-511 (0.5 μg/cm^2) at 1.2×10^6 cells per 1 well and cultured under 37° C., 5% CO2 conditions (start of the second step). […]

[6] = tested on: human iPS cells (1231A3 line); test: Production of RPE cells including MEK inhibitor or FGF receptor inhibitor treatment step, plate observation (Example 14); format: cell-based; conditions: PD0325901 1 μM or PD173074 100 nM, 6 days; day 43 of culture
From the text: as §1

[7] = tested on: human iPS cells (QHJI01 line); test: Seeded cell number in transition of first step to second step (Example 9); format: cell-based; conditions: all seeded cell number (0.2, 0.4, 0.6, 1.0, 2.0, or 4.0×10^4 cells/cm^2) at start of second step; PD0325901 1 μM or PD173074 100 nM, 6 days; day 49 of culture
From the text: as §1

[8] = tested on: human iPS cells (QHJI01 line and 1231A3 line); test: MEK inhibitors PD184352, U0126, TAK-733, AZD-8330 in first step (Example 10); format: cell-based; conditions: 6 days; 1 μM PD0325901; 1.5, 3, 6 μM PD184352; 5, 10 μM U0126; 0.3 μM TAK-733; 0.3 μM AZD-8330; day 49 and day 50 of culture
From the text: The medium used was “STEMFIT™” AK03N medium (Ajinomoto Co., Inc.) (hereinafter AK03N medium).

[9] = tested on: human iPS cells (201B7 line and 1231A3 line); test: Production of RPE cells from human iPS cells including MEK inhibitor treatment step (Example 1); format: cell-based
Method: The medium used was “STEMFIT™” AK03 medium (Ajinomoto Co., Inc.) (hereinafter AK03 medium) or Essential 8 medium (Life Technologies).
Production of retinal pigment epithelial (RPE) cells including an MEK inhibitor treatment step was performed as follows. iPS cells under culture for maintaining undifferentiated state were treated with 0.5×TrypLE select (mixture of equal amounts of TrypLE select (Life Technologies)) and 0.5 mM EDTA/PBS(−)), dissociated using a cell scraper, dispersed to single cells by pipetting, seeded in a 6-well culture plate coated with iMatrix-511 (Nippi) (0.5 μg/cm^2) at 1.2×10^4 cells per 1 well, and cultured in an AK03 medium or Essential 8 medium containing a ROCK inhibitor [10 μM Y-27632 (Wako Pure Chemical Industries, Ltd.)] under 37° C., 5% CO2 conditions. On the next day of seeding, PD0325901 (SIGMA) as an MEK inhibitor was added to the AK03 medium at a final concentration of 1 μM or Essential 8 medium at a final concentration of 0.03 μM (start of the first step) and the cells were exposed thereto for 6 days (completion of the first step). […]

[10] = tested on: human iPS cells (QHJI01 line and 1231A3 line); test: FGF receptor inhibitor SU5402 in first step (Example 11); format: cell-based; conditions: 6 days; 100 nM PD173074; 5, 10, 20 μM SU5402; day 49 of culture
From the text: as §1

[11] = tested on: human iPS cells (201B7 line and 1231A3 line); test: Production of RPE cells from human iPS cells including FGF receptor inhibitor treatment step (Example 2); format: cell-based; conditions: PD173074 100 nM
From the text: In one embodiment, to study the effect of the FGF receptor inhibitor in a medium free of a factor for maintaining undifferentiated state (bFGF), StemSure hPSC Medium Δ (Wako Pure Chemical Industries, Ltd.) (hereinafter StemSure hPSC Medium Δ w/o bFGF) not added with bFGF was used.

[12] = tested on: human iPS cells (QHJI01 line); test: Differentiation induction effect of Nodal or Wnt signal transduction pathway inhibitor alone in second step (Example 12); format: cell-based; conditions: second step day 1 to day 12 with 5 μM SB-431542 and/or 3 μM CKI-7, after first step with 1 μM PD0325901 for 6 days; day 43 of culture
From the text: as §1
In the second step, the following 3 kinds of media were used.

**Q.** With `O=C(NOC[C@H](O)CO)c1ccc(F)c(F)c1Nc1ccc(I)cc1F` [PD0325901, N-[(2R)-2,3-Dihydroxypropoxy]-3,4-difluoro-2-[(2-fluoro-4-iodophenyl)amino]-benzamide] as the molecule, how does the “bands of retinal pigment epithelial cell markers RPE65, BEST1, CRALBP by RT-PCR” value (RPE65, BEST1, CRALBP) read?
**A.** The value was “clear bands could be confirmed”.

**Q.** What about the “emergence of RPE cells showing typical characteristics” value [1] of the same molecule?
**A.** Its value is “emergence of RPE cells showing typical characteristics of RPE cell such as a brown-black, polygonal, cobblestone-like morphology could be confirmed”.

**Q.** And the “emergence of brown-black cell population” value ([2]; all MEK inhibitor concentrations (0.25-4 μM))?
**A.** The value was “emergence of a brown-black cell population could be confirmed over a wide area”.

**Q.** And the brown-black cell population [3]?
**A.** Its brown-black cell population is “a remarkable increase in the brown-black cell population was seen”.

**Q.** What about the “proportion of cells that developed color in the whole well versus number of exposure days” value [3] of the same molecule?
**A.** The value was “the proportion of cells that developed color in the whole well increased as the number of exposure day increased up to 6 days of exposure”.

**Q.** What about the brown-black cell populations [3] of the same molecule?
**A.** Its brown-black cell populations is “brown-black cell populations increased”.

**Q.** And the “emergence of brown-black cell population on culture plate” value [4]?
**A.** The value was “emergence of a brown-black cell population could be confirmed over a wide area”.

**Q.** And the “emergence of brown-black cell population” value ([5]; exposure for 3 days)?
**A.** The value was “emergence of a brown-black cell population could be confirmed over a wide area”.

**Q.** And the “emergence of brown-black cell population” value ([5]; exposure for 6 days)?
**A.** The value was “emergence of a brown-black cell population could be confirmed over a wide area”.

**Q.** What about the “emergence of colored cell population” value ([5]; exposure for 13 days) of the same molecule?
**A.** The value was “sufficient emergence of colored cell population was also confirmed”.

**Q.** And the “cells showing typical characteristics of RPE cell” value ([5]; exposure for one day)?
**A.** Its value is “almost no cell that showed typical characteristics of RPE cell”.

**Q.** And the “emergence of brown-black cell population” value [6]?
**A.** The value was “emergence of a brown-black cell population could be confirmed over a wide area”.

**Q.** What about the “emergence of brown-black cell population” value [7] of the same molecule?
**A.** Its value is “emergence of a brown-black cell population could be confirmed over a wide area”.

**Q.** What about the “emergence of brown-black cell population” value [8] of the same molecule?
**A.** Its value is “emergence of a brown-black cell population could be confirmed over a wide area”.

**Q.** What about the “emergence of brown-black cell population on culture plate” value ([9]; PD0325901 1 μM in AK03 medium or 0.03 μM in Essential 8 medium, exposed 6 days, observed 38 to 42 days of culture, both 201B7 and 1231A3 lines) of the same molecule?
**A.** Its value is “emergence of a brown-black cell population could be confirmed over a wide area”.

**Q.** And the “cell morphology by microscopic observation” value ([9]; PD0325901 1 μM, 6 days first step, 201B7, FIG. 2)?
**A.** Its value is “the cells showed typical characteristics of RPE cell such as a brown-black, polygonal, cobblestone-like morphology”.

**Q.** Which “emergence of brown-black cell population” value [10] does the source give for `Cc1c[nH]c(C=C2C(=O)Nc3ccccc32)c1CCC(=O)O` [SU5402, 2-[(1,2-Dihydro-2-oxo-3H-indol-3-ylidene)methyl]-4-methyl-1H-pyrrole-3-propanoic acid] here?
**A.** The value was “emergence of a brown-black cell population could be confirmed over a wide area”.

**Q.** What does the source list for `CCN(CC)CCCCNc1ncc2cc(-c3cc(OC)cc(OC)c3)c(NC(=O)NC(C)(C)C)nc2n1` [PD173074, N-[2-[[4-(Diethylamino)butyl]amino]-6-(3,5-dimethoxyphenyl)pyrido[2,3-d]pyrimidin-7-yl]-N′-(1,1-dimethylethyl)urea]?
**A.** bands of retinal pigment epithelial cell markers RPE65, BEST1, CRALBP by RT-PCR (RPE65, BEST1, CRALBP): clear bands could be confirmed; emergence of RPE cells showing typical characteristics [1]: emergence of RPE cells showing typical characteristics of RPE cell such as a brown-black, polygonal, cobblestone-like morphology could be confirmed; emergence of brown-black cell population [10]: emergence of a brown-black cell population could be confirmed over a wide area; emergence of brown-black cell population ([2]; all FGF receptor inhibitor concentrations (25-400 nM)): emergence of a brown-black cell population could be confirmed over a wide area; brown-black cell population [3]: a remarkable increase in the brown-black cell population was seen; proportion of cells that developed color in the whole well versus number of exposure days [3]: the proportion of cells that developed color in the whole well increased as the number of exposure day increased up to 6 days of exposure; brown-black cell populations [3]: brown-black cell populations increased; emergence of brown-black cell population on culture plate [4]: emergence of a brown-black cell population could be confirmed over a wide area; emergence of brown-black cell population [6]: emergence of a brown-black cell population could be confirmed over a wide area; emergence of brown-black cell population [7]: emergence of a brown-black cell population could be confirmed over a wide area; cell morphology by microscopic observation ([11]; 6 days first step, 201B7, FIG. 5): the cells showed typical characteristics of RPE cell such as a brown-black, polygonal, cobblestone-like morphology; emergence of brown-black cell population on culture plate ([11]; 6 days, AK03 medium, Essential 8 medium or StemSure hPSC Medium Δ w/o bFGF, observed 38 to 42 days, 201B7 line and/or 1231A3 line): emergence of a brown-black cell population could be confirmed over a wide area

**Q.** `N#CC(=C(N)Sc1ccccc1N)C(C#N)=C(N)Sc1ccccc1N` [U0126, 1,4-Diamino-2,3-dicyano-1,4-bis[2-aminophenylthio]butadiene] was tested. Which “emergence of brown-black cell population” value [8] did it give?
**A.** The value was “emergence of a brown-black cell population could be confirmed over a wide area”.

**Q.** `Cn1c(=O)c(F)c(Nc2ccc(I)cc2F)c2c(=O)n(C[C@@H](O)CO)cnc21` [TAK-733, (R)-3-(2,3-dihydroxypropyl)-6-fluoro-5-(2-fluoro-4-iodophenylamino)-8-methylpyrido[2,3-d]pyrimidine-4,7(3H, 8H)-dione] was tested. Which “emergence of brown-black cell population” value [8] did it give?
**A.** The value was “emergence of a brown-black cell population could be confirmed over a wide area”.

**Q.** For `NC(=O)c1ccc(-c2nc(-c3ccc4c(c3)OCO4)c(-c3ccccn3)[nH]2)cc1` [NODALi, 4-[4-(1,3-Benzodioxol-5-yl)-5-(pyridin-2-yl)-1H-imidazol-2-yl]benzamide], which “emergence of cells showing typical characteristics of RPE cell” value [12] is on record?
**A.** The value was “emergence of cells showing the same level of typical characteristics of RPE cell such as a brown-black, polygonal, cobblestone-like morphology could be confirmed”.

**Q.** With `NCCNS(=O)(=O)c1ccc(Cl)c2ccncc12` [WNTi, N-(2-Aminoethyl)-5-chloroisoquinoline-8-sulfonamide] as the molecule, how does the “emergence of cells showing typical characteristics of RPE cell” value [12] read?
**A.** Its value is “the brown-black area in the whole well decreased; however, emergence of a sufficient number of cells showing the typical characteristics of RPE cell could be confirmed”.

**Q.** With `Cc1cc(C(=O)NOCCO)c(Nc2ccc(I)cc2F)n(C)c1=O` [AZD-8330, 2-(2-fluoro-4-iodophenylamino)-N-(2-hydroxyethoxy)-1,5-dimethyl-6-oxo-1,6-dihydropyridine-3-carboxamide] as the molecule, how does the “emergence of brown-black cell population” value [8] read?
**A.** The value was “emergence of a brown-black cell population could be confirmed over a wide area”.

**Q.** With `O=C(NOCC1CC1)c1ccc(F)c(F)c1Nc1ccc(I)cc1Cl` [PD184352] as the molecule, how does the “emergence of brown-black cell population” value [8] read?
**A.** The value was “emergence of a brown-black cell population could be confirmed over a wide area”.
